Key:
Assay type in all cases: in vivo, human
[1] = Mock beverage tasting of sweeteners in citric acid buffer and phosphoric acid buffer; settings: for Dosage for ~7 Brix SE: estimated concentrations, benchmark 500 ppm mogroside V
Source text: Siamenoside I was separately tasted in citric acid buffer (pH 3.2) and phosphoric acid buffer (pH 2.6) at 500 ppm and compared against an equivalent solution of RebM90 (RebM with at least 90% purity) and various other sweeteners.
Accordingly, the dosage of all other sweeteners was adjusted benchmark 500 ppm mogroside V. Estimated concentrations are presented below.

[2] = Blind bench tasting of lemon-lime flavored carbonated beverages; settings: in blends with Reb-M
Experimental: The ingredients were dissolved in filtered water to constitute a syrup (6.5 times concentrated), then the final beverage was made by weighing the appropriate syrup amount and adding carbonated water using a ratio of 1 part syrup+5.5 parts carbonated water. Target carbonation volume in finished beverages was […] of CO2. For samples with high Reb-M content (#1 and #2) syrup water was heated to about 47° C. to allow Reb-M solubility, then cooled down to ambient temperature before adding the remaining ingredients. Final beverages were filled in 300 ml glass bottles then aged for 3 days at 35° C. before they were cooled and served cold (4° C.).
Four experienced panelists bench tasted the beverages blindly. Each panelist was given warm bottled water and unsalted crackers to eat and rinse the palate between samples. A maximum of 3 samples was tasted at each session to avoid fatigue.

[3] = Blind bench evaluation of sweeteners in six beverage matrices, RebM90 as control; settings: Lemon Lime Sparkling (70% sugar reduction)
Experimental: A blind evaluation of the above-named sweeteners was conducted in six (6) beverage (liquid) matrices, including both sparkling and still matrixes. Of the six beverage matrices, four (4) were calorie reduction matrixes and two (2) were diet matrixes. RebM90 served as control. 7-10 internal team members blindly evaluated the samples.

Compound: C[C@H](CC[C@@H](O[C@@H]1O[C@H](CO[C@@H]2O[C@H](CO)[C@@H](O)[C@H](O)[C@H]2O)[C@@H](O)[C@H](O)[C@H]1O[C@@H]1O[C@H](CO)[C@@H](O)[C@H](O)[C@H]1O)C(C)(C)O)[C@H]1CC[C@@]2(C)[C@@H]3CC=C4[C@@H](CC[C@H](O[C@@H]5O[C@H](CO[C@@H]6O[C@H](CO)[C@@H](O)[C@H](O)[C@H]6O)[C@@H](O)[C@H](O)[C@H]5O)C4(C)C)[C@]3(C)[C@H](O)C[C@]12C [Mogroside V]
- Brix SE ([1]; 500 ppm): approximately 7 Brix SE
- relative sweetness of solutions ([1]; 500 ppm, citric acid buffer pH 3.2 and phosphoric acid buffer pH 2.6): the least sweet
- Dosage for ~7 Brix SE [1]: 500 ppm

Compound: C[C@H](CC[C@@H](O[C@@H]1O[C@H](CO[C@@H]2O[C@H](CO)[C@@H](O)[C@H](O)[C@H]2O)[C@@H](O)[C@H](O)[C@H]1O[C@@H]1O[C@H](CO)[C@@H](O)[C@H](O)[C@H]1O)C(C)(C)O)[C@H]1CC[C@@]2(C)[C@@H]3CC=C4[C@@H](CC[C@H](O[C@@H]5O[C@H](CO)[C@@H](O)[C@H](O)[C@H]5O)C4(C)C)[C@]3(C)[C@H](O)C[C@]12C [Siamenoside I]
- maximum sweetness intensity [2]: 10 Brix equivalent
- Dosage for ~7 Brix SE [1]: 350 ppm

Compound: C=C1C[C@@]23CC[C@H]4[C@@](C)(CCC[C@@]4(C)C(=O)O[C@@H]4O[C@H](CO)[C@@H](O)[C@H](O[C@@H]5O[C@H](CO)[C@@H](O)[C@H](O)[C@H]5O)[C@H]4O[C@@H]4O[C@@H](C)[C@H](O)[C@@H](O)[C@H]4O)[C@@H]2CC[C@]1(O[C@@H]1O[C@H](CO)[C@@H](O)[C@H](O[C@@H]2O[C@H](CO)[C@@H](O)[C@H](O)[C@H]2O)[C@H]1O[C@@H]1O[C@H](CO)[C@@H](O)[C@H](O)[C@H]1O)C3 [Rebaudioside N]
- Dosage for ~7 Brix SE [1]: 360 ppm

Compound: C[C@H](CC[C@@H](O[C@@H]1O[C@H](CO[C@@H]2O[C@H](CO)[C@@H](O)[C@H](O)[C@H]2O)[C@@H](O)[C@H](O)[C@H]1O[C@@H]1O[C@H](CO)[C@@H](O)[C@H](O)[C@H]1O)C(C)(C)O)[C@H]1CC[C@@]2(C)[C@@H]3CC=C4[C@@H](CC[C@H](O[C@@H]5O[C@H](CO)[C@@H](O[C@@H]6O[C@H](CO)[C@@H](O)[C@H](O)[C@H]6O)[C@H](O)[C@H]5O)C4(C)C)[C@]3(C)[C@H](O)C[C@]12C [Isomogroside V]
- Dosage for ~7 Brix SE [1]: 270 ppm
- Comments: less sweet [3]: less sweet (−1.5 BE), mogroside

Compound: C[C@H](CC[C@@H](O[C@@H]1O[C@H](CO)[C@@H](O)[C@H](O)[C@H]1O[C@@H]1O[C@H](CO)[C@@H](O)[C@H](O)[C@H]1O)C(C)(C)O)[C@H]1CC[C@@]2(C)[C@@H]3CC=C4[C@@H](CC[C@H](O[C@@H]5O[C@H](CO)[C@@H](O)[C@H](O)[C@H]5O)C4(C)C)[C@]3(C)[C@H](O)C[C@]12C [Mogroside IIIe]
- Dosage for ~7 Brix SE [1]: 350 ppm

Compound: C[C@H](CC[C@@H](O[C@@H]1O[C@H](CO)[C@@H](O)[C@H](O)[C@H]1O[C@@H]1O[C@H](CO)[C@@H](O)[C@H](O)[C@H]1O)C(C)(C)O)[C@H]1CC[C@@]2(C)[C@H]3CC=C4[C@@H](CC[C@H](O[C@@H]5O[C@H](CO[C@@H]6O[C@H](CO)[C@@H](O)[C@H](O)[C@H]6O)[C@@H](O)[C@H](O)[C@H]5O)C4(C)C)[C@]3(C)[C@H](O)C[C@]12C [Mogroside IV]
- Dosage for ~7 Brix SE [1]: 435 ppm

Source: patent US20230284660A1, “Siamenoside I Sweetened Compositions and Uses of the Same” (The Coca-Cola Company, priority 2017, published 2023)
